Assay results as given in PubChem BioAssay AID624129 (Sanford-Burnham Center for Chemical Genomics, 2012).
Calls of active or inactive are those of the source. How the calls were made is not given here.

Columns and labels:
Assay in all cases: CXCR6 receptor antagonists, dose response, cell-based, beta-arrestin, DiscoveRx, APJ panel, uHTS hits (AID 624129)
[1] = target: Apelin receptor (Homo sapiens) (UniProt P35414); settings: CXCR6 beta-arrestin (DiscoveRx) antagonist cell assay, APJ
[2] = target: C-C chemokine receptor type 6 (Homo sapiens) (UniProt P51684); settings: CXCR6 beta-arrestin (DiscoveRx) antagonist cell assay
[3] = target: Beta-galactosidase (Escherichia coli) (UniProt Q8VNN2); settings: CXCR6 beta-arrestin (DiscoveRx) antagonist cell assay, b-galactosidase
[4] = target: C-X-C chemokine receptor type 6 (Homo sapiens) (UniProt O00574); settings: CXCR6 beta-arrestin (DiscoveRx) antagonist cell assay; for inhibition: CXCR6, run 1, dose range 2, at 80 µM (top of the series)
[5] = dose range 1, mean IC50 across replicates
[6] = CCR6, dose range 1, mean IC50 across replicates
[7] = CXCR6, dose range 1, mean IC50 across replicates

Sequence of C-X-C chemokine receptor type 6 (Homo sapiens) (O00574 whole entry, looked up): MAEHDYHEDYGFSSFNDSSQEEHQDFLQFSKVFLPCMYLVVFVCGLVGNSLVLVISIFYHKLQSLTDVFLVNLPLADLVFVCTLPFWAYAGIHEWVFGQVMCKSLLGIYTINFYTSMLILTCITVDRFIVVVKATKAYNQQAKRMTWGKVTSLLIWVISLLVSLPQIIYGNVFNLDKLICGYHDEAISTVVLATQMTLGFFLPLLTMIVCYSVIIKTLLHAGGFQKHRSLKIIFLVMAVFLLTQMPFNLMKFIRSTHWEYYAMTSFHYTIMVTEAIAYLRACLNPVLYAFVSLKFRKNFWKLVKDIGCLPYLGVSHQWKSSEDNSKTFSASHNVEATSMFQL
Sequence of Beta-galactosidase (Escherichia coli) (Q8VNN2 whole entry, looked up): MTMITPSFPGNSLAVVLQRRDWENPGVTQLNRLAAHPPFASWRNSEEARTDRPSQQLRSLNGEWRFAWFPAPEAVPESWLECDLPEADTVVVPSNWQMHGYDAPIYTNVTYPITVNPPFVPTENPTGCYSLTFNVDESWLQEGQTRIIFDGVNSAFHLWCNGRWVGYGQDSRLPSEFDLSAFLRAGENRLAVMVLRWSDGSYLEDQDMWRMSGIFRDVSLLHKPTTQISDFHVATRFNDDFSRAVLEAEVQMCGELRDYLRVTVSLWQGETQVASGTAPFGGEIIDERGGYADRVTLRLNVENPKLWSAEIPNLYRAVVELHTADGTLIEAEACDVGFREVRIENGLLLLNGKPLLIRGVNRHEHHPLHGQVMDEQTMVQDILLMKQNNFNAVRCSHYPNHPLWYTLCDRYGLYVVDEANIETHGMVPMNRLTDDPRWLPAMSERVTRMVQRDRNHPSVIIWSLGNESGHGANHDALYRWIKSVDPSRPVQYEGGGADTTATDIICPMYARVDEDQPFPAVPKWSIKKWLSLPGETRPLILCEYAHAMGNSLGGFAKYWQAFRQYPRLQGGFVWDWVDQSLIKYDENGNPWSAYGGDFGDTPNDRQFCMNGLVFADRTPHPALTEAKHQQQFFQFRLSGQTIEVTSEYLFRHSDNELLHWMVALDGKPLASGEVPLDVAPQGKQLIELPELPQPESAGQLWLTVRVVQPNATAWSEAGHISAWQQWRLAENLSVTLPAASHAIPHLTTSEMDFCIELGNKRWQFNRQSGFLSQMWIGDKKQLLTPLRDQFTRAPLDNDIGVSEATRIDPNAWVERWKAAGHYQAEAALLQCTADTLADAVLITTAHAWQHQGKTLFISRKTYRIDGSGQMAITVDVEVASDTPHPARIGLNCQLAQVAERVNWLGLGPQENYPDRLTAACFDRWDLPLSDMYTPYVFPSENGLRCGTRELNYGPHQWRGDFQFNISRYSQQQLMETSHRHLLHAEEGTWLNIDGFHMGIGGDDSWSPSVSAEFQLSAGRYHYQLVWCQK

SMILES	IC50 [1, 5]	IC50 ([1]; run 2, dose range 1)	IC50 ([1]; run 3, dose range 1)	IC50 [2, 6]	IC50 ([2]; CCR6, run 2, dose range 1)	IC50 ([3]; dose range 1)	IC50 [3, 5]	IC50 ([4]; CXCR6, dose range 1)	IC50 [4, 7]	inhibition [4]	IC50 ([4]; CXCR6, run 2, dose range 1)	IC50 ([1]; dose range 1)	IC50 ([2]; CCR6, dose range 1)	IC50 ([4]; CXCR6, run 1, dose range 2)	IC50 ([4]; CXCR6, run 2, dose range 2)
O=[N+]([O-])c1ccc(S(=O)Cc2ccccc2)c([N+](=O)[O-])c1 (stereo not drawn)	> 80 µM	> 80 µM	> 80 µM	> 80 µM	> 80 µM	> 80 µM (inactive)	> 80 µM	> 80 µM (inactive)	> 80 µM	-36.3%	> 80 µM				
CNc1cc(Cl)c2nonc2c1[N+](=O)[O-]	8.61 µM	4.89 µM	15.1 µM	3.29 µM	3.46 µM	> 80 µM (inactive)	> 80 µM	3.61 µM	3.39 µM		4.12 µM	5.88 µM	3.13 µM	3.02 µM	2.83 µM
N=C1S/C(=C\c2ccco2)C(=O)N1c1nccs1	10.5 µM	12.4 µM	10.6 µM	8.52 µM	8.91 µM	> 80 µM (inactive)	> 80 µM	10.4 µM	8.97 µM		9.6 µM	8.43 µM	8.13 µM	6.4 µM	9.45 µM
CC1(C)CC(=O)C2=C(C1)OC1=C(C(=O)CC(C)(C)C1)C2c1ccc(O)cc1O	10.6 µM	8.84 µM	11.7 µM	5.44 µM	6.22 µM	> 80 µM (inactive)	> 80 µM	10.3 µM	9.86 µM		9.24 µM	11.2 µM	4.66 µM	9.08 µM	10.8 µM
Cc1ccc(C(=O)CNc2ccc(F)cc2)cc1	0.281 µM	0.236 µM	0.242 µM	0.271 µM	0.251 µM	> 80 µM (inactive)	> 80 µM	0.476 µM	0.435 µM	113%	0.395 µM	0.364 µM	0.29 µM		
C=C1CC2(OC1=O)c1ccccc1CCc1ccccc12	> 80 µM	> 80 µM	> 80 µM	12.9 µM	10.7 µM	> 80 µM (inactive)	> 80 µM	inactive	18.7 µM	58.6%	15.8 µM		15.1 µM		
Cc1cccnc1Nc1nc(-c2ccccn2)cs1	1.38 µM	1.82 µM	1.13 µM	1.22 µM	1.48 µM	> 80 µM (inactive)	> 80 µM	1.13 µM	0.904 µM		0.861 µM	1.2 µM	0.955 µM	0.837 µM	0.788 µM
CC(C)(C)c1ccc(-n2nc(C#N)c(Cl)cc2=O)cc1	7.86 µM	5.54 µM	10.9 µM	5.45 µM	7.1 µM	> 80 µM (inactive)	> 80 µM	11.5 µM	8.28 µM		8.56 µM	7.12 µM	3.8 µM	5.14 µM	7.92 µM
C=C(CN(C)C)C(=O)c1ccc(C)cc1C	39.5 µM	39.9 µM	27 µM	29.1 µM	32.3 µM	48.2 µM	48.2 µM	inactive	45.6 µM	90.5%	25.5 µM	51.6 µM	26 µM		
CCCC(=O)OCCNc1cc(Sc2nc3ccccc3[nH]2)c2nonc2c1[N+](=O)[O-]	9.49 µM	5.87 µM	10.2 µM	5.55 µM	5.83 µM	inactive	50.4 µM	5.82 µM	6.71 µM		6.36 µM	12.4 µM	5.26 µM	7.57 µM	7.1 µM
